Source: paper PMC3118832 (Clinical Therapeutics, 2011)
Like-named read-outs stand apart in the source and are kept apart here. Blank lines part the entries; values can stand above or below the molecule they belong to.

Columns and labels:
[1] = cited from earlier work; for enzymatic autoinduction: administered continuously over several days; for CL/F / Vd/F / t1/2: healthy Vietnamese male volunteers, single oral administration, mean
[2] = clinical; settings: human, in vivo
Description: The study was conducted at HTD-HCMC. The clinical trial protocol was reviewed and supported by the internal Scientific and Ethical Committee of the HTD-HCMC and Oxford Tropical Research Ethics Committee (OxTREC 019-06), University of Oxford, Oxford, United Kingdom. The volunteers were randomly assigned to 1 of the 24 possible sequences for the 4 treatment groups (Table I). […] A fixed tablet combination of piperaquine and the reference Vietnamese formulation is not commercially available and could not be included in this trial.
Study drug was administered with 200 mL of drinking water after an overnight fast of >10 hours, according to US Food and Drug Administration (FDA) guidelines for bioequivalence studies.[30] The volunteers were asked to continue fasting for 2 hours after drug administration. Beverages containing caffeine or alcohol were not allowed on days of drug administration and blood sampling. […] Tolerability was assessed daily by the clinician during each study occasion (using an adverse-event report form) and at the follow-up visit 1 week after last study occasion (using an adverse-event report form and laboratory assessment). Adverse events were accessed by using an open question about potential health problems during the study and followed up with a questionnaire if any health problems had occurred since the last consultation.
An intravenous indwelling cannula was introduced and maintained in the antecubital vein and kept for 12 hours during blood sample collection at each study visit. A blood volume of 0.5 mL was discarded before sample collection to avoid drug dilution effects. A5-mL blood sample was drawn into lithium heparin tubes (Hong Thien My Medical Equipment Joint Stock Co., Ho Chi Minh City, Vietnam) before drug administration (predose) and at the following times after drug administration (postdose): 0.25, 0.5, 1, 1.5, 2, 2.5, 3, 4, 5, 6, 7, 8, 10, and 12 hours. The same time schedule was followed for all study visits. Saline solution (0.9% sodium chloride, 2 mL) was used to flush the lines after blood collection. Blood samples were immediately centrifuged at 3000g for 10 minutes at 20°C. Plasma were transferred to cryotubes within 10 minutes after centrifugation and stored directly at –70°C. All samples were freighted to Thailand on dry ice and analyzed by the Clinical Pharmacology Laboratory at Mahidol–Oxford Tropical Medicine Research Unit (Bangkok, Thailand).
The LC-MS/MS system consisted of an Agilent 1200 LC system including an autosampler set at 4°C and a column oven set at 40°C (Agilent Technologies Inc., Santa Clara, California) coupled with an API 5000 triple quadrupole mass spectrometer (Applied Biosystems/MDS SCIEX, Foster City, California). The lower limit of quantitation was set to 1.03 ng/mL, with a limit of detection of 0.257 ng/mL. […] Three independent quality-control samples in plasma (2.89, 40.7, and 571 ng/mL) were prepared fresh and analyzed in triplicate in each batch of extracted plasma samples. All samples were kept on ice until loaded onto the solid-phase extraction plate. The extracted samples were injected directly (5 μL) into the LC-MS/MS system.
AUC0–last values were calculated using the linear trapezoidal method for ascending concentrations and the logarithmic trapezoidal method for descending concentrations.[33] […] Cmax and Tmax concentrations were taken directly from the observed data. Vd/F and CL/F were computed individually according to standard procedures and summarized for each treatment group. […]

[3] = Tolerability: adverse-event reports and laboratory assessment at follow-up; assay type: in vivo, human
Description: Fifteen healthy Vietnamese male volunteers aged 18 to 55 years were enrolled in the study. No female subjects were enrolled to avoid potential risks of adverse effects on the fetus during early pregnancy. The study design and potential adverse drug effects were explained to all volunteers in their own language before initiation of any study-related procedures. Volunteers who provided written informed consent were considered for enrollment. Clinical and laboratory screenings were performed at the Hospital for Tropical Diseases in Ho Chi Minh City (HTD-HCMC), Vietnam, and the results evaluated before enrollment. Clinical evaluation and laboratory assessment (full hematology and biochemistry) were also performed at follow-up 1 week after the last study visit.

[4] = posttreatment (follow-up 1 week after last visit), mean (SD)

Structure (SMILES): CO[C@H]1O[C@@H]2O[C@@]3(C)CC[C@H]4[C@H](C)CC[C@@H]([C@H]1C)[C@@]24OO3 [artemether]
- enzymatic autoinduction [1]: marked ability for enzymatic autoinduction

- oral clearance in smokers compared with nonsmokers ([2]; po): significantly higher
- CL/F ([2]; male): 121 mL/min/kg
- Vd ([2]; male): 1320 L
- Vd/F ([2]; male): 22.8 L/kg
- half-life ([2]; male): 2.23 h
Structure (SMILES): C[C@@H]1CC[C@H]2[C@@H](C)C(=O)O[C@@H]3O[C@@]4(C)CC[C@@H]1[C@]32OO4 [artemisinin]
- tolerability / adverse events ([3]; 15 healthy volunteers, single oral doses): no adverse events were reported
- volunteers with higher aspartate aminotransferase at follow-up compared with baseline ([3]; levels still in the normal range): Six of the 15
- Urea ([3]; posttreatment (follow-up 1 week after last of 4 single-dose visits), mean (SD)): 5.36 (1.5) [2.4–7.2] mM
- ALT [3, 4]: 44.7 (25) [15–120] U/L
- AST [3, 4]: 29.1 (16) [19–80] U/L
- Albumin [3, 4]: 39.7 (4.2) [30–46] g/L
- Basophils [3, 4]: 1.12 (0.49) [0.23–2.1] %
- Eosinophils [3, 4]: 5.34 (3.2) [1.6–13] %
- Erythrocytes [3, 4]: 5.23 (0.49) [4.6–6.1] 10^12/L
- Ferritin [3, 4]: 117 (36) [69–190] μg/L
- Globulin [3, 4]: 37.7 (6.5) [30–47] g/L
- Glucose [3, 4]: 3.91 (0.35) [3.5–4.4] mM
- Hematocrit [3, 4]: 47.7 (2.5) [45–53] %
- Hemoglobin [3, 4]: 15.6 (0.78) [15–18] g/dL
- Leukocytes [3, 4]: 7.62 (1.5) [5.4–10] 10^9/L
- Lymphocytes [3, 4]: 32.5 (6.2) [21–43] %
- Magnesium [3, 4]: 0.896 (0.17) [0.70–1.1] mM
- Monocytes [3, 4]: 7.47 (1.4) [5.3–10] %
- Neutrophils [3, 4]: 53.7 (6.5) [45–63] %
- Reticulocytes [3, 4]: 0.700 (0.34) [0.10–1.5] %
- Thrombocytes [3, 4]: 258 (59) [130–330] 10^9/L
- Total bilirubin [3, 4]: 16.1 (4.0) [9.0–20] μM
- Total protein [3, 4]: 77.3 (5.1) [67–82] g/L
- CL/F ([1]; ref 31): 127 mL/min/kg
- Vd/F ([1]; ref 31): 35.9 L/kg
- t1/2 ([1]; ref 31): 2.10 h
- CL/F ([1]; ref 35): 85 mL/min/kg
- Vd/F ([1]; ref 35): 19.4 L/kg
- t1/2 ([1]; ref 35): 2.59 h
- CL/F ([1]; ref 36): 89.7 mL/min/kg
- Vd/F ([1]; ref 36): 16.4 L/kg
- t1/2 ([1]; ref 36): 2.51 h
- bioavailability ([1]; in vivo): < 30%

Structure (SMILES): C[C@H]1[C@@H](O)O[C@@H]2O[C@@]3(C)CC[C@H]4[C@H](C)CC[C@@H]1[C@@]24OO3 [dihydroartemisinin]
- enzymatic autoinduction [1]: not
